Experimental data as given in patent publication US4769461A, “Quinolinyl benzene hydroxamic acids as anti-inflammatory/antiallergic agents” (American Home Products Corporation, priority 1986, dated 1988).
Like-named read-outs stand apart in the source and are kept apart here. Values belong to the compound of their own block, whether it stands above or below them.

Tests used:
[1] = tested on: carrageenan paw edema (acute inflammatory response); assay: Rat carrageenan paw edema assay; assay type: in vivo, rat (male Sprague-Dawley); details: for ED50: Rattus norvegicus, po, read-out: Oral ED50 (95% C.L.) mg/kg; for % Inhibition at 100 mg/kg (peroral): 1 hour prior to carrageenan, edema at 3 hours
Description: The compounds of the invention are further tested in the rat carrageenan paw edema assay to determine their ability to inhibit the acute inflammatory response. This assay is carried out as follows: 140-180 gm male Sprague-Dawley rats, in groups of 6 animals are injected subcutaneously in the right paw with 0.1 ml of 1% carrageenan at zero time. Mercury plethysmographic readings (ml) of the paw are made at zero time and 3 hours later. Test compounds are suspended or dissolved in 0.5% methylcellulose and given perorally 1 hour prior to carrageenan administration. The increase in paw volume (edema in ml.) produced by the carrageenan is measured. […] Unpaired Student's t-test is used to determine statistical significance.

[2] = tested on: LTD4 induced bronchoconstriction; assay: Inhibition of bronchospasm induced in guinea pigs by exogenously administered leukotrienes C4 and/or D4; assay type: in vivo, guinea pig (male Hartley); details: 10 minutes before induction of bronchospasm; for ED50: Cavia porcellus, read-out: IC50 (the source's name)
Description: The assay of this Example measures the in vivo ability of the compounds of the invention to inhibit the bronchospasm induced in guinea pigs by the exogenously administered leukotrienes C4 and/or D4.
This assay is carried out as follows:
Male Hartley strain guinea pigs (350-600 g) are anesthetized with pentobarbital sodium (50 mg/kg, i.p.). The jugular vein is cannulated for injection of drugs and the carotid artery for monitoring blood pressure. The trachea is cannulated for artificial ventilation by a miniature Starling pump and for indirect measurement of respiratory volume changes. The animals are then pretreated with succinylcholine (2 mg/kg i.v.) and indomethacin (10 mg/kg i.v. in trizma 8.3 buffer, 9 minutes prior to leukotriene challenge). Submaximal bronchoconstrictor responses are established in control animals by varying the dose-levels of leukotriene. Intravenous dose-levels for LTC4 range from 0.4 to 0.6 μg/kg and for LTD4 the range is from 0.3 to 0.5 μg/kg. The aerosol bronchoprovocation dose for LTC4 is generated from 1.6 μM solution and for LTD4 from a 2.0 μM solution.
Test drugs (dissolved in a solvent such as propylene glycol, polyethylene glycol 400 or saline) are administered either intraduodenally, by aerosol or perorally at 2 or 10 minutes before induction of bronchospasm by administration of either LTC4 or LTD4 at the predetermined dose-levels. Aerosols of soluble drugs or leukotrienes are produced in-line for 10 seconds only by actuation of an ultrasonic nebulizer (Monaghan). Aerosolized drug dosage is expressed in terms of solution concentration and by a fixed aerosol exposure time (approximately 10 seconds). Control animals receive solvent (2 ml/kg i.d. or appropriate aerosol) in place of drug.
(§1) Respiratory volume changes are determined by a calibrated piston whose travel is recorded, via a linear transducer, on a Beckman Dynograph recorder. Maximal bronchoconstrictor volume is determined by clamping off the trachea at the end of the experiment. Overflow volumes at 1, 3 and 5 minutes are obtained from the recorded charts.
(§2) Area under the volume overflow curve (AUC) is estimated, using the overflow values at 1, 3 and 5 minutes, and expressed as a percentage of the maximal overflow AUC (equation 1): [formula] Drug effects are reported as percent inhibition of % max AUC values obtained from appropriate control animals (equation 2): [formula]
Student's t-test for unpaired data is used to determine statistical significance (p<0.05). IC50 values can also be determined by inverse prediction from linear regression lines through points between 10 and 90% inhibition.

[3] = tested on: synthesis of the lipoxygenase product 5-HETE in rat polymorphonuclear leukocytes; assay: Inhibition of 5-HETE synthesis by rat glycogen elicited polymorphonuclear leukocytes; assay type: cell-based, rat (female Wistar)
Description: The assay of this Example measures the ability of the compounds of the invention to inhibit the synthesis of 5-HETE by rat glycogen elicited polymorphonuclear leukocytes.
(§3) The assay is carried out as follows:
(§4) Peritoneal PMN are obtained from female Wistar rats (150-250 g) that received an i.p. injection of 6% glycogen (10 ml). After 24 hours, rats are killed by CO2 asphyxiation and peritoneal cells are harvested by peritoneal lavage using Ca^++ and Mg^++ free Hanks' balanced salt solution (HBSS). The peritoneal exudate is centrifuged at 400 g for 10 minutes. After centrifugation, the lavaged fluid is removed and the cell pellet is resuspended in HBSS containing Ca^++ and Mg^++ and 10 mM L-cysteine at a concentration of 2×10^7 cells/ml. To 1 ml portions of cell suspension, test drugs or vehicle are added and incubated at 37° C. for 10 minutes. Following this preincubation, the calcium ionophore (10 μM), A23187, is added together with 0.5 μCi [14 C] arachidonic acid and further incubated for 10 minutes. The reaction is stopped by the addition of ice cold water (3 ml) and acidifying to pH 3.5. […] After chromatography, the areas associated with 5-HETE standard are identified by autoradiography, cut out and quantitated by liquid scintillation.
The compounds of this invention are tested in this assay at a level of 10 μm. […] Some results are expressed as an IC50 value.

[4] = tested on: ovalbumin induced bronchospasm mediated by endogenous products of lipoxygenase oxidation of arachidonic acid; assay: Inhibition of ovalbumin induced bronchospasm in guinea pigs by endogenous mediators of bronchoconstriction; assay type: in vivo, guinea pig (male Hartley); details: 10 minutes before ovalbumin challenge; for ED50: Cavia porcellus
Description: The assay of this Example measures the in vivo ability of the compounds of the invention to inhibit the bronchospasm induced in guinea pigs by endogenous mediators of the bronchoconstriction.
as §3
Male Hartley strain guinea pigs weighing 250-350 g are sensitized to chicken ovalbumin (OA) (10 mg i.p.) on days 1 and 3 and used starting on day 26. The animals are anesthetized with pentobarbital sodium (50 mg/kg, i.p.), bilateral vagotomy is performed, and the jugular vein is cannulated for injection of drugs and the carotid artery for monitoring blood pressure. The trachea is cannulated for artificial ventilation by miniature Starling pump and for indirect measurement of respiratory volume changes. Succinylcholine (2 mg/kg, i.v.) is administered to arrest spontaneous respiration. A cyclooxygenase inhibitor, indomethacin (10 mg/kg in tris buffer, i.v. at 9 min.) is administered to shunt arachidonic metabolism to lipoxygenase pathways. One minute later, chlorpheniramine (1.0 mg/kg in saline, i.v.) is given to attenuate the histaminic component of anaphylactic bronchoconstriction. Test drugs (dissolved in propylene glycol, polyethylene glycol or saline) are administered either intraduodenally, perorally or by aerosol at 2 or 10 minutes before antigen challenge. Anaphylactic bronchoconstriction is induced by administration by breaths of aerosolized OA (1%) or by intravenous administration of 0.1-0.3 mg/kg OA in saline. Control animals receive solvent (2 ml/kg i.d. or appropriate aerosol) in place of drug.
as §1, with “volumes at minutes 1, 3” for “volumes at 1, 3”, “and 5 are obtained” for “and 5 minutes are obtained”
as §2, with “2): [formula] Student's t-test for unpaired data is used to determine statistical significance. Dose response curves are generated and ED50 doses are interpolated from the regression lines.” for “2): [formula]”

[5] = tested on: synthesis of the cyclooxygenase product PGE2 in rat polymorphonuclear leukocytes; assay: Inhibition of synthesis of the cyclooxygenase oxidation product PGE2 (procedure of Example 5); assay type: cell-based, rat (female Wistar); details: tested at 10 μm
Description: as §4, with “3.5. Lipoxygenase products are then extracted twice into diethyl ether.” for “3.5.”, “scintillation. […]” for “scintillation.”
In this assay, the procedure of Example 5 is carried out as described. […] After chromatography, the areas associated with the PGE2 standard are identified by autoradiography, cut out and quantitated by liquid scintillation techniques.
The results are calculated as in Example 5.

[6] = 25 mg/kg perorally administered

SMILES: CC(=O)Oc1ccccc1C(=O)O [Aspirin, reference compound]
ED50 [1]: 145 mg/kg

IC50 ([3]; Leukocyte, rat PMN): 10.5 µM
SMILES: CONC(=O)Cc1cccc(OCc2ccc3ccccc3n2)c1 [Example 1, O-methyl-3-[(2-quinolinyl)methoxy]benzeneaceto hydroxamate]
% Inhibition at 100 mg/kg (peroral) [1]: 50% | % Inhibition ([2]; 25 mg/kg intraduodenally): 90.6% | % Inhibition ([2]; 25 mg/kg perorally): 86.3% | ED50 ([2]; po, perorally administered): 5.9 mg/kg | ED50 ([2]; intraduodenally administered): 1.8 mg/kg | % Inhibition of Max AUC ([4]; 25 mg/kg intraduodenal): 56.0% | % Inhibition of Max AUC [4, 6]: 82.8% | ED50 ([4]; po, perorally administered): 2.5 mg/kg | ED50 ([4]; intraduodenal): 7.3 mg/kg

SMILES: CONC(=O)c1cccc(OCc2ccc3ccccc3n2)c1 [Example 2A, O-methyl-3-[(2-quinolinyl)methoxy]benzoic hydroxyamate]
% Inhibition at 100 mg/kg (peroral) [1]: 32% | % Inhibition ([2]; 25 mg/kg intraduodenally): 92.8% | % Inhibition ([2]; 25 mg/kg perorally): 72.4% | ED50 ([2]; po, perorally administered): 13.1 mg/kg | ED50 ([2]; intraduodenally administered): 3.16 mg/kg | % Inhibition of Max AUC ([4]; 25 mg/kg intraduodenal): 76.6% | % Inhibition of Max AUC [4, 6]: -1.5%

SMILES: O=C(NOCc1ccccc1)c1cccc(OCc2ccc3ccccc3n2)c1 [Example 2B, O-benzyl-3-[(2-quinolinyl)methoxy]benzoic hydroxamate]
% Inhibition at 100 mg/kg (peroral) [1]: 42% | % Inhibition ([2]; 25 mg/kg intraduodenally): 69.4% | >50% Inhibition at 10 μm [5]: + (those compounds having an inhibition of >50% are designated by a "+") | >50% Inhibitory at 10 μm ([3]; tested at 10 μm): + (those compounds having an inhibition of >50% are designated by a "+")

SMILES: O=C(Cc1cccc(OCc2ccc3ccccc3n2)c1)NOCc1ccccc1 [Example 2C, O-benzyl-3-[(2-quinolinyl)methoxy]benzeneaceto hydroxamate]
% Inhibition at 100 mg/kg (peroral) [1]: 37%

SMILES: CONC(=O)Cc1cccc(OCc2nc3ccccc3n2C)c1 [Example 2D, O-methyl-3-[1-methyl(2-benzimidazoyl)methoxy]benzoaceto hydroxamate]
% Inhibition at 100 mg/kg (peroral) [1]: 48% | >50% Inhibition at 10 μm [5]: + (those compounds having an inhibition of >50% are designated by a "+")

SMILES: CONC(=O)Cc1cccc(OCc2nc3ccccc3s2)c1 [Example 2E, O-methyl-3-[(2-benzthiazoyl)methoxy]benzoaceto hydroxamate]
% Inhibition at 100 mg/kg (peroral) [1]: 38%

SMILES: O=C(Cc1cccc(OCc2ccc3ccccc3n2)c1)NO [Example 3, 3-[(2-Quinolinyl)methoxy]benzeneaceto hydroxamic acid]
% Inhibition ([2]; 25 mg/kg intraduodenally): 10%

SMILES: O=C(NO)c1cccc(OCc2ccc3ccccc3n2)c1 [Example 4A, 3-[(2-quinolinyl)methoxy]benzoic hydroxamic acid]
% Inhibition ([2]; 25 mg/kg intraduodenally): 32.8%

SMILES: COc1ccc2c(c1)c(CC(=O)O)c(C)n2C(=O)c1ccc(Cl)cc1 [Indomethacin, reference compound]
ED50 [1]: 3.7 mg/kg
